System: 699152-130-R-J1-PDC complex spheroid viability
Assay: Anticancer human tumor 699152-130-R-J1-PDC patient-derived pancreatic carcinoma cell line growth inhibition [POLQ]
Conditions: for IC50: curve of first compound; for viability, T/C: stronger effect = lower value
In short: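 Complex spheroid viability model combining PDC tumour cells with endothelial (HUVEC) and MSC stromal cells. Novobiocin, ART-558 or RP6685 were tested singly and in combination with standard and investigational anticancer drugs. Each was titrated in half-log steps from near clinical Cmax, or from 10 microM where Cmax was unknown.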

[1] = second compound 0.0316 µM, first compound 0.0316 µM
[2] = second compound 0.0316 µM, first compound 0.1 µM
[3] = second compound 0.0316 µM, first compound 0.316 µM
[4] = second compound 0.0316 µM, first compound 1 µM
[5] = second compound 0.0316 µM, first compound 3.16 µM
[6] = second compound 0.0316 µM, first compound 10 µM
[7] = second compound 0.1 µM, first compound 0.0316 µM
[8] = second compound 0.1 µM, first compound 0.1 µM
[9] = second compound 0.1 µM, first compound 0.316 µM
[10] = second compound 0.1 µM, first compound 1 µM
[11] = second compound 0.1 µM, first compound 3.16 µM
[12] = second compound 0.1 µM, first compound 10 µM
[13] = second compound 0.316 µM, first compound 0.0316 µM
[14] = second compound 0.316 µM, first compound 0.1 µM
[15] = second compound 0.316 µM, first compound 0.316 µM
[16] = second compound 0.316 µM, first compound 1 µM
[17] = second compound 0.316 µM, first compound 3.16 µM
[18] = second compound 0.316 µM, first compound 10 µM
[19] = second compound 1 µM, first compound 0.0316 µM
[20] = second compound 1 µM, first compound 0.1 µM
[21] = second compound 1 µM, first compound 0.316 µM
[22] = second compound 1 µM, first compound 1 µM
[23] = second compound 1 µM, first compound 3.16 µM
[24] = second compound 1 µM, first compound 10 µM
[25] = second compound 3.16 µM, first compound 0.0316 µM
[26] = second compound 3.16 µM, first compound 0.1 µM
[27] = second compound 3.16 µM, first compound 0.316 µM
[28] = second compound 3.16 µM, first compound 1 µM
[29] = second compound 3.16 µM, first compound 3.16 µM
[30] = second compound 3.16 µM, first compound 10 µM
[31] = second compound 10 µM, first compound 0.0316 µM
[32] = second compound 10 µM, first compound 0.1 µM
[33] = second compound 10 µM, first compound 0.316 µM
[34] = second compound 10 µM, first compound 1 µM
[35] = second compound 10 µM, first compound 3.16 µM
[36] = second compound 10 µM, first compound 10 µM
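Also: spheroids exposed to agents for 7 days before viability reading.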
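For viability, T/C in this document: percent of DMSO vehicle control viability so 100% = vehicle and 0% = no viable signal.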

Structure (SMILES): O=c1[nH]cc(F)c(=O)[nH]1 + COC1C(OC(N)=O)C(O)C(Oc2ccc3c(O)c(NC(=O)c4ccc(O)c(CC=C(C)C)c4)c(=O)oc3c2C)OC1(C)C
- IC50 (second compound 0.0316 µM): > 10 µM
- IC50 (second compound 0.1 µM): > 10 µM
- IC50 (second compound 0.316 µM): > 10 µM
- IC50 (second compound 1 µM): > 10 µM
- IC50 (second compound 3.16 µM): > 10 µM
- IC50 (second compound 10 µM): > 10 µM
- viability, T/C [1]: 101%
- viability, T/C [2]: 92.8%
- viability, T/C [3]: 108%
- viability, T/C [4]: 108%
- viability, T/C [5]: 91.3%
- viability, T/C [6]: 75.4%
- viability, T/C [7]: 109%
- viability, T/C [8]: 113%
- viability, T/C [9]: 88.5%
- viability, T/C [10]: 97.2%
- viability, T/C [11]: 93.6%
- viability, T/C [12]: 68.7%
- viability, T/C [13]: 92.6%
- viability, T/C [14]: 99.6%
- viability, T/C [15]: 99.8%
- viability, T/C [16]: 95.4%
- viability, T/C [17]: 86%
- viability, T/C [18]: 65.9%
- viability, T/C [19]: 104%
- viability, T/C [20]: 101%
- viability, T/C [21]: 91%
- viability, T/C [22]: 105%
- viability, T/C [23]: 98.5%
- viability, T/C [24]: 76.8%
- viability, T/C [25]: 102%
- viability, T/C [26]: 93.2%
- viability, T/C [27]: 91.2%
- viability, T/C [28]: 88.4%
- viability, T/C [29]: 92.5%
- viability, T/C [30]: 72.8%
- viability, T/C [31]: 106%
- viability, T/C [32]: 108%
- viability, T/C [33]: 101%
- viability, T/C [34]: 95.9%
- viability, T/C [35]: 88.2%
- viability, T/C [36]: 73%

Structure (SMILES): CCc1cc2c(N3CCc4c(cc(Cn5ccnc5)cc4-c4cn(C)nc4C(F)(F)F)C3=O)ccnc2c(OC)n1 + COC1C(OC(N)=O)C(O)C(Oc2ccc3c(O)c(NC(=O)c4ccc(O)c(CC=C(C)C)c4)c(=O)oc3c2C)OC1(C)C
- IC50 (second compound 0.0316 µM): > 10 µM
- IC50 (second compound 0.1 µM): > 10 µM
- IC50 (second compound 0.316 µM): > 10 µM
- IC50 (second compound 1 µM): > 10 µM
- IC50 (second compound 3.16 µM): > 10 µM
- IC50 (second compound 10 µM): > 10 µM
- viability, T/C [1]: 82.1%
- viability, T/C [2]: 102%
- viability, T/C [3]: 95.5%
- viability, T/C [4]: 107%
- viability, T/C [5]: 104%
- viability, T/C [6]: 97.3%
- viability, T/C [7]: 91.7%
- viability, T/C [8]: 89.8%
- viability, T/C [9]: 87.4%
- viability, T/C [10]: 87.6%
- viability, T/C [11]: 109%
- viability, T/C [12]: 96.4%
- viability, T/C [13]: 88.2%
- viability, T/C [14]: 89.8%
- viability, T/C [15]: 99.9%
- viability, T/C [16]: 99%
- viability, T/C [17]: 105%
- viability, T/C [18]: 97%
- viability, T/C [19]: 97.1%
- viability, T/C [20]: 85%
- viability, T/C [21]: 90.4%
- viability, T/C [22]: 112%
- viability, T/C [23]: 101%
- viability, T/C [24]: 91.9%
- viability, T/C [25]: 86.7%
- viability, T/C [26]: 91.4%
- viability, T/C [27]: 89.6%
- viability, T/C [28]: 96%
- viability, T/C [29]: 98.4%
- viability, T/C [30]: 93.9%
- viability, T/C [31]: 105%
- viability, T/C [32]: 80.6%
- viability, T/C [33]: 85.3%
- viability, T/C [34]: 101%
- viability, T/C [35]: 102%
- viability, T/C [36]: 101%

Structure (SMILES): CCCS(=O)(=O)Nc1ccc(F)c(C(=O)c2c[nH]c3ncc(-c4ccc(Cl)cc4)cc23)c1F + COC1C(OC(N)=O)C(O)C(Oc2ccc3c(O)c(NC(=O)c4ccc(O)c(CC=C(C)C)c4)c(=O)oc3c2C)OC1(C)C
- IC50 (second compound 0.0316 µM): > 10 µM
- IC50 (second compound 0.1 µM): > 10 µM
- IC50 (second compound 0.316 µM): > 10 µM
- IC50 (second compound 1 µM): > 10 µM
- IC50 (second compound 3.16 µM): > 10 µM
- IC50 (second compound 10 µM): > 10 µM
- viability, T/C [1]: 117%
- viability, T/C [2]: 105%
- viability, T/C [3]: 125%
- viability, T/C [4]: 151%
- viability, T/C [5]: 172%
- viability, T/C [6]: 64.7%
- viability, T/C [7]: 115%
- viability, T/C [8]: 109%
- viability, T/C [9]: 126%
- viability, T/C [10]: 159%
- viability, T/C [11]: 191%
- viability, T/C [12]: 64.1%
- viability, T/C [13]: 108%
- viability, T/C [14]: 112%
- viability, T/C [15]: 134%
- viability, T/C [16]: 149%
- viability, T/C [17]: 177%
- viability, T/C [18]: 59.9%
- viability, T/C [19]: 105%
- viability, T/C [20]: 115%
- viability, T/C [21]: 126%
- viability, T/C [22]: 147%
- viability, T/C [23]: 171%
- viability, T/C [24]: 64.1%
- viability, T/C [25]: 105%
- viability, T/C [26]: 121%
- viability, T/C [27]: 124%
- viability, T/C [28]: 145%
- viability, T/C [29]: 281%
- viability, T/C [30]: 68.3%
- viability, T/C [31]: 107%
- viability, T/C [32]: 114%
- viability, T/C [33]: 123%
- viability, T/C [34]: 148%
- viability, T/C [35]: 175%
- viability, T/C [36]: 66.4%

Structure (SMILES): CC(C)n1c(=O)n(C)c2cnc3cc(F)c(-c4ccc(OCCCN5CCCCC5)nc4)cc3c21 + Nc1ccc(C#CCN(C(=O)Cc2ncc(C(F)(F)F)cc2C(F)(F)F)c2ccc(F)cc2)nn1
- IC50 (second compound 0.0316 µM): > 10 µM
- IC50 (second compound 0.1 µM): > 10 µM
- IC50 (second compound 0.316 µM): > 10 µM
- IC50 (second compound 1 µM): > 10 µM
- IC50 (second compound 3.16 µM): > 10 µM
- IC50 (second compound 10 µM): > 10 µM
- viability, T/C [1]: 88.5%
- viability, T/C [2]: 111%
- viability, T/C [3]: 93.5%
- viability, T/C [4]: 97.9%
- viability, T/C [5]: 104%
- viability, T/C [6]: 96.8%
- viability, T/C [7]: 118%
- viability, T/C [8]: 103%
- viability, T/C [9]: 106%
- viability, T/C [10]: 108%
- viability, T/C [11]: 101%
- viability, T/C [12]: 86.9%
- viability, T/C [13]: 98.1%
- viability, T/C [14]: 105%
- viability, T/C [15]: 103%
- viability, T/C [16]: 116%
- viability, T/C [17]: 104%
- viability, T/C [18]: 89.5%
- viability, T/C [19]: 109%
- viability, T/C [20]: 93.6%
- viability, T/C [21]: 103%
- viability, T/C [22]: 111%
- viability, T/C [23]: 106%
- viability, T/C [24]: 89%
- viability, T/C [25]: 116%
- viability, T/C [26]: 98.2%
- viability, T/C [27]: 112%
- viability, T/C [28]: 118%
- viability, T/C [29]: 108%
- viability, T/C [30]: 86.2%
- viability, T/C [31]: 116%
- viability, T/C [32]: 119%
- viability, T/C [33]: 121%
- viability, T/C [34]: 113%
- viability, T/C [35]: 112%
- viability, T/C [36]: 91.9%
